Assay: molar heat capacity at constant pressure
Details: 101.33 kPa, Liquid

CCCO [propan-1-ol]
Details | molar heat capacity at constant pressure [J/K/mol]
163.93 K | 107.01
166.64 K | 107.32
169.34 K | 107.61
172.03 K | 107.88
174.71 K | 108.22
177.37 K | 108.49
180.03 K | 108.81
182.68 K | 109.05
185.32 K | 109.37
187.95 K | 109.64
190.57 K | 109.94
193.19 K | 110.41
195.79 K | 110.64
198.38 K | 110.93
200.97 K | 111.4
203.35 K | 111.76
205.56 K | 112.13
208.15 K | 112.54
211.11 K | 113.05
214.08 K | 113.58
217.04 K | 114.16
219.99 K | 114.78
222.92 K | 115.39
225.84 K | 116.05
228.74 K | 116.74
231.64 K | 117.43
234.52 K | 118.2
237.38 K | 118.92
240.23 K | 119.7
243.07 K | 120.56
245.89 K | 121.39
248.7 K | 122.27
251.5 K | 123.2
254.28 K | 123.87
257.05 K | 124.8
259.81 K | 125.83
262.55 K | 126.88
265.28 K | 127.98
267.99 K | 129.08
270.68 K | 130.22
273.36 K | 131.39
276.02 K | 132.62
278.67 K | 133.86
281.3 K | 135.13
283.91 K | 136.42
286.51 K | 137.76
289.09 K | 139.17
291.66 K | 140.59
294.2 K | 141.98
296.74 K | 143.51
299.25 K | 144.96
301.34 K | 146.08
303.15 K | 147.29
305.04 K | 148.45
306.99 K | 149.78
308.94 K | 151.07
310.9 K | 152.24
312.85 K | 153.55
314.81 K | 155.12
316.76 K | 156.37
318.71 K | 157.72
320.67 K | 159.16
322.62 K | 160.63
324.58 K | 162.08
326.53 K | 163.47
328.49 K | 165.03
330.44 K | 166.52
332.4 K | 168.01
334.35 K | 169.52
336.31 K | 171.04
338.26 K | 172.66
340.22 K | 174.2
342.17 K | 175.61
344.13 K | 177.2
346.1 K | 178.27
348.07 K | 180.29
350.04 K | 181.83

— the NIST ThermoML archive (doi:10.1021/je0499768)
